How the values were obtained:
Estrogen receptor beta = Estrogen receptor beta (Homo sapiens, UniProt Q92731)
Estrogen receptor = target: T1, Estrogen receptor (Rattus norvegicus, UniProt P06211)
T1 sequence (P06211 whole entry): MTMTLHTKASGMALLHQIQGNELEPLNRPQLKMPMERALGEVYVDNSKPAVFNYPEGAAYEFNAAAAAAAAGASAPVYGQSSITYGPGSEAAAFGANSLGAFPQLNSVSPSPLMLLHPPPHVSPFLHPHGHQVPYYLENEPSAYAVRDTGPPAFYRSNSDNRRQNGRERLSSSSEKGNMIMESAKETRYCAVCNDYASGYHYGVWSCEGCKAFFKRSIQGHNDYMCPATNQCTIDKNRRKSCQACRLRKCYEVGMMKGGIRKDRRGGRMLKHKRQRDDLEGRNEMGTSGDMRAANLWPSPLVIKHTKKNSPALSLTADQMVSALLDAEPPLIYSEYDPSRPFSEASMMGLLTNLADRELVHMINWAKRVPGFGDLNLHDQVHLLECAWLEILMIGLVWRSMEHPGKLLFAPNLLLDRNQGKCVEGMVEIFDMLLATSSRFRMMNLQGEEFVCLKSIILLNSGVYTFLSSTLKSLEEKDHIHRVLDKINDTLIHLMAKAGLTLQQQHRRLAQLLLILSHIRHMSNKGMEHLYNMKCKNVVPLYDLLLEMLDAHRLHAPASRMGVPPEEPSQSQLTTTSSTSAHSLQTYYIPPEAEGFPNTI

Glucocorticoid receptor = target: T2, Glucocorticoid receptor (Rattus norvegicus, UniProt P06536)
T2 sequence (P06536 whole entry): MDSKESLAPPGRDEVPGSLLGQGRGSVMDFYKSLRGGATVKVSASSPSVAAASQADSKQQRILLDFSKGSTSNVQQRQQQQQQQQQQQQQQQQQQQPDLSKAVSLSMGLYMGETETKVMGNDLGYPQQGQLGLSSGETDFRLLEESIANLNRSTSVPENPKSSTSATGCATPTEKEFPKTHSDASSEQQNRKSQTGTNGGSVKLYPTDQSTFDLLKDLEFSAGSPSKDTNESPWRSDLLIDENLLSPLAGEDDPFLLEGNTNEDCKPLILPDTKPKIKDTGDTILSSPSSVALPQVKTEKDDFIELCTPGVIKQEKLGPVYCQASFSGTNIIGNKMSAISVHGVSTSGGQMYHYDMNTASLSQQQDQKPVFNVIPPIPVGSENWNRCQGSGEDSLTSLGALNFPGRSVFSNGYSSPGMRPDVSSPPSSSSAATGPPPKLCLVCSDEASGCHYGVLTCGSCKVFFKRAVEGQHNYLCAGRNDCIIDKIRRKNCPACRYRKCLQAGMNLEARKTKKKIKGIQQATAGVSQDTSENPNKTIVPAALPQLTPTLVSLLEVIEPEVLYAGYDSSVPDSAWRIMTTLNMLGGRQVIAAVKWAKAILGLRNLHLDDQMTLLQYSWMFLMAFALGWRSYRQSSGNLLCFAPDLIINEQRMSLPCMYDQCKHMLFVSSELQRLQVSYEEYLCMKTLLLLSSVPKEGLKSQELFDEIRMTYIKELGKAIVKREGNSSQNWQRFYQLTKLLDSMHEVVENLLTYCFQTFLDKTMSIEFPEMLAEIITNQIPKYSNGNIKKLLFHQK

[1] = target: T3, Mineralocorticoid receptor (Rattus norvegicus, UniProt P22199)
T3 sequence (P22199 whole entry): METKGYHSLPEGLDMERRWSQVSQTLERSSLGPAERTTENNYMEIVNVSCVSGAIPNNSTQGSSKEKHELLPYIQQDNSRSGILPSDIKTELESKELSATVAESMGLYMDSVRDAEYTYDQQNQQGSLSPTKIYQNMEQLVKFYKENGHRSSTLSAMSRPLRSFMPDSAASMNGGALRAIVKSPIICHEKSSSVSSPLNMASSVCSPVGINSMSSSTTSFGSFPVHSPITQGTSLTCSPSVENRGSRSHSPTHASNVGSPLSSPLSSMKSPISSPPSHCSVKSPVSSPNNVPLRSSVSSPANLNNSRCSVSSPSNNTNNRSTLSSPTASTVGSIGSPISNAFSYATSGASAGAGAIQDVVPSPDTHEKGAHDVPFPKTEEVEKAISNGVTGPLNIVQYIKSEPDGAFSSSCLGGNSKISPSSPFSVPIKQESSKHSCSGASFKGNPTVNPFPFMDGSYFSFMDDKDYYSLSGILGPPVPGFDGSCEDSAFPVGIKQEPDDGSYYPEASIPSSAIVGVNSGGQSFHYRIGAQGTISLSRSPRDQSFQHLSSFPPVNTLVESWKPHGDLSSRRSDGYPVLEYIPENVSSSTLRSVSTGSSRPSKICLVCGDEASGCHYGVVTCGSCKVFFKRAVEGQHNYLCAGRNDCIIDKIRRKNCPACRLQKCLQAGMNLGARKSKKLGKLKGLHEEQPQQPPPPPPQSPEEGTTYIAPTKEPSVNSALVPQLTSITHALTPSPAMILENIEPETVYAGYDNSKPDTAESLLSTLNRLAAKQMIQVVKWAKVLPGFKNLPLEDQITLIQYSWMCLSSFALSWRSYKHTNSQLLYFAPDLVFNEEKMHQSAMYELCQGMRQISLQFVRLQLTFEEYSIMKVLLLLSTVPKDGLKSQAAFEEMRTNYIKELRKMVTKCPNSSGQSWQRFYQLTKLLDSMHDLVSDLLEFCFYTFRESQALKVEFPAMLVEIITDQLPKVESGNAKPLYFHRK

[2] = target: T4, Thyroid hormone receptor alpha (Rattus norvegicus, UniProt P63059)
T4 sequence (P63059 whole entry): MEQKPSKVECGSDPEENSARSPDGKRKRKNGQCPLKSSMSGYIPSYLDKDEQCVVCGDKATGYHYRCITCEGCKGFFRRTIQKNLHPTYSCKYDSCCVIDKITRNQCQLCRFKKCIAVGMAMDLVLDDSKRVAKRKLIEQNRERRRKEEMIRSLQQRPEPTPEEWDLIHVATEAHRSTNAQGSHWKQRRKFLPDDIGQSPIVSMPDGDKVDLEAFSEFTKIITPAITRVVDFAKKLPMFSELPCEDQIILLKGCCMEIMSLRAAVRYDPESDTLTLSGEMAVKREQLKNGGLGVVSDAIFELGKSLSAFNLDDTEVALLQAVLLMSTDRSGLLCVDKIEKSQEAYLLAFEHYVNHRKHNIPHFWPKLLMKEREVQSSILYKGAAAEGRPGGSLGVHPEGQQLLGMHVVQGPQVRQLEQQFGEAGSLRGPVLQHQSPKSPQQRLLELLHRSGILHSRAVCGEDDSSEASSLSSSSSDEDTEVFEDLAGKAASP

[3] = target: T5, Thyroid hormone receptor beta (Rattus norvegicus, UniProt P18113)
T5 sequence (P18113 whole entry): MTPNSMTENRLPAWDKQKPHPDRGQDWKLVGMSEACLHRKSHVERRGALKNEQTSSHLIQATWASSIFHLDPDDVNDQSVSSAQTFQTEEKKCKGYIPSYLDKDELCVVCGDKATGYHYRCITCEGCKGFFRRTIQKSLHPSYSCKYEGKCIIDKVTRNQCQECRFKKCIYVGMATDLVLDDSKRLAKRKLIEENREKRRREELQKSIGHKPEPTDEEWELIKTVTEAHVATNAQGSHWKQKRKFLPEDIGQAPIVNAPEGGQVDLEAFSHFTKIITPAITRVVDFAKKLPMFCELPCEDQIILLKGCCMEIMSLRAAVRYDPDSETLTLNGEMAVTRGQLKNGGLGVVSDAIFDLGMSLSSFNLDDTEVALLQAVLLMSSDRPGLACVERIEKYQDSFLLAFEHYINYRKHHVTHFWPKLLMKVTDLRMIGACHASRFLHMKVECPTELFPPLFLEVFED

[4] = target: Progesterone receptor (Homo sapiens) (UniProt P06401)
Chain of Progesterone receptor (Homo sapiens) (P06401 whole entry, looked up): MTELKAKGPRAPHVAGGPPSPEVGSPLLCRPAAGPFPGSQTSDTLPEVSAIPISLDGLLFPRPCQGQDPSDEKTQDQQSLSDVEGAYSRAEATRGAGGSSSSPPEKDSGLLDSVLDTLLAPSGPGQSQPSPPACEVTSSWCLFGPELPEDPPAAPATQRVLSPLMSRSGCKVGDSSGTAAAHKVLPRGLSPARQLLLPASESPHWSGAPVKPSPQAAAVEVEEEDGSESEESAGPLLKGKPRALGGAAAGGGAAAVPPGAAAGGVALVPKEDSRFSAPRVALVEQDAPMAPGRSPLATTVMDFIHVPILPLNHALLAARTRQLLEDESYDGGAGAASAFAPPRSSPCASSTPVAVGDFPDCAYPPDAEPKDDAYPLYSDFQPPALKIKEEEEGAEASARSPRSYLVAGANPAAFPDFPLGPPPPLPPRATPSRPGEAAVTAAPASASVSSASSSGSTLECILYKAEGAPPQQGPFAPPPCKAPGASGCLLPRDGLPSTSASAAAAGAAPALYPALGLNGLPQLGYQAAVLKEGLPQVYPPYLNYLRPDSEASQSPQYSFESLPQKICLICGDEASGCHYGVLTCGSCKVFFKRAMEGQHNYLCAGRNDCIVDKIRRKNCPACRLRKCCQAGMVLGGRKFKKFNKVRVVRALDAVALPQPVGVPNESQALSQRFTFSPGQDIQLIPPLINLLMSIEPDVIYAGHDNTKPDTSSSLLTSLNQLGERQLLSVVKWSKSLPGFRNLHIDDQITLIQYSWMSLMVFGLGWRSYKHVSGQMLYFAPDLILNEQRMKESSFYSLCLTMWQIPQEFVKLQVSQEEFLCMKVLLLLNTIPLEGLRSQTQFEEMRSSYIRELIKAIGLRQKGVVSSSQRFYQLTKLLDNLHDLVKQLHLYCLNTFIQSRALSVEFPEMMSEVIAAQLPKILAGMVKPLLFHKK

Chain of Estrogen receptor beta (Q92731 whole entry): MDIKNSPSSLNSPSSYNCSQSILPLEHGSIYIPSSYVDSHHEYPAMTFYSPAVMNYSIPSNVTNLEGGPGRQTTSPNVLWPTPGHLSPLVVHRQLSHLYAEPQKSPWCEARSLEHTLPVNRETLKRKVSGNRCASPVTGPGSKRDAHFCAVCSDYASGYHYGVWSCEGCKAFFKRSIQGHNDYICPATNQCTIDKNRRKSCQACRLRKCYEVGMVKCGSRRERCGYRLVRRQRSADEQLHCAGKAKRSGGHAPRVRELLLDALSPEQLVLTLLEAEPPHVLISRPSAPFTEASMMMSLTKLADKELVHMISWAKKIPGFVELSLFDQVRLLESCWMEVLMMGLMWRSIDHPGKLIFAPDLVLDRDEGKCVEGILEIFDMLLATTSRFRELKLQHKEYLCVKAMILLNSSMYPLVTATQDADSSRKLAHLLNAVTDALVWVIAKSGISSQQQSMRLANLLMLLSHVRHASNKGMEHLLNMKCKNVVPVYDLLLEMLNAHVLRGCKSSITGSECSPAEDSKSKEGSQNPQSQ

| Ki (Estrogen receptor beta) [nM] | Ki (Estrogen receptor) [nM] | Ki (Glucocorticoid receptor) [nM] | Ki [1] [nM] | Ki [2] [nM] | Ki [3] [nM] | Ki [4] [nM] | Compound |
| --- | --- | --- | --- | --- | --- | --- | --- |
| 110 | 12 | 0.27 | 440 | 670 | 1500 | 0.81 | CC#C[C@]1(O)CC[C@H]2[C@@H]3CCC4=CC(=O)CCC4=C3[C@@H](c3ccc(N(C)CCO[C@H]4CCC5C(C4)C[C@@H](O)C4C5C[C@H](O)C5C(C(C)CCC(=O)O)CCC45)cc3)C[C@@]21C (stereo partly specified) [A-348441] |
|  | > 200 |  | 640 | > 1250 | > 2250 |  | CC#C[C@]1(O)CC[C@H]2[C@@H]3CCC4=CC(=O)CCC4=C3[C@@H](c3ccc(N(C)C)cc3)C[C@@]21C [CAS_84371-65-3] |
